According to patent US7816522B2, “Triazolone derivatives” (Eisai Co., Ltd., priority 2006, dated 2010):
Structures can show the parent of a compound that is named as a salt.

Molecular target: T1, human clotting factor VIIa (Homo sapiens, UniProt P08709)
T1 construct: a human clotting factor VIIa (hereinafter, “Factor VIIa”) purified sample; purchased Enzyme Research Laboratories HFVIIa
Assay: Inhibitory activity against clotting factor VIIa (chromogenic substrate Spectrozyme FVIIa, TF/Factor VIIa enzyme solution)
Format: biochemical
Details: human Factor VIIa 5 nmol/L with human TF 10 nmol/L, room temperature 40 minutes, 405 nm
Outline: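 Human Factor VIIa (5 nmol/L) with human TF (10 nmol/L) in Tris-BSA buffer pH 7.4 containing 15 mmol/L CaCl2 and cephalin, with Spectrozyme FVIIa substrate. Reaction 40 min at room temperature; 4-nitroanilide read at 405 nm. IC50 by non-linear regression over 100 μmol/L–0.1 nmol/L.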

T1 sequence (P08709 213-466 limits assumed): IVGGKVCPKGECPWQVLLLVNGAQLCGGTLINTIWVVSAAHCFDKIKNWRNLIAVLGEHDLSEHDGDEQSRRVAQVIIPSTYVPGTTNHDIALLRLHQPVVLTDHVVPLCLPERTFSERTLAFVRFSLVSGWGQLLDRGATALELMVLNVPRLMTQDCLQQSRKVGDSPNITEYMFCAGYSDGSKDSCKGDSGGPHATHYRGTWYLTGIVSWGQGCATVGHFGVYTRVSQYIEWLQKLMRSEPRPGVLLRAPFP
T1 sequence (P08709 61-212 limits assumed): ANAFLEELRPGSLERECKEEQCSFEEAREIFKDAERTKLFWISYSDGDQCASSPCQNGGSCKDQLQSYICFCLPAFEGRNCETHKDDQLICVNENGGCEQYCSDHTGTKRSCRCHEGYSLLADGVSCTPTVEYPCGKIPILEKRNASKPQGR
T1 sequence (P13726 33-295 partner): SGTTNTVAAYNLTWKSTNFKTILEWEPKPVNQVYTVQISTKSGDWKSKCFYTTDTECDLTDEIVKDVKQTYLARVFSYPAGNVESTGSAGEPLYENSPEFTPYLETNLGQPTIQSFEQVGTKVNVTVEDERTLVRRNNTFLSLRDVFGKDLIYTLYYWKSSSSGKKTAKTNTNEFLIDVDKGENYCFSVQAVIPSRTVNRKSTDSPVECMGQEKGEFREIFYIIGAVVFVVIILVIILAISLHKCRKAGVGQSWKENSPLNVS

Row | Structure (SMILES) | IC50 [µM]
1 | CCOC(=O)c1cn[nH]c1-n1nc(C(Nc2ccc(C(=N)N)cc2)c2cc(OC)c3c(c2F)OCCCO3)[nH]c1=O (stereo not shown) [Example 192, 5-{3-[(4-Carbamimidoylphenylamino)-(6-fluoro-9-methoxy-3,4-dihydro-2H-benzo[b][1,4]dioxepin-7-yl)methyl]-5-oxo-4,5-dihydro-[1,2,4]triazol-1-yl}-1H-pyrazole-4-carboxylic acid ethyl ester acetate] | 0.0054
2 | COc1cc(C(Nc2ccc(C(=N)N)cc2)c2nn(-c3[nH]ncc3C(=O)O)c(=O)[nH]2)c(F)c2c1OCCCO2 (stereo not shown) [Example 196, 5-{3-[(4-Carbamimidoylphenylamino)-(6-fluoro-9-methoxy-3,4-dihydro-2H-benzo[b][1,4]dioxepin-7-yl)methyl]-5-oxo-4,5-dihydro-[1,2,4]triazol-1-yl}-1H-pyrazole-4-carboxylic acid acetate] | 0.0178
3 | COc1cc(OCCO)c(F)c(C(Nc2ccc(C(=N)N)cc2)c2nn(-c3ncccc3N)c(=O)[nH]2)c1 (stereo not shown) [Example 200, 4-({[1-(3-Aminopyridin-2-yl)-5-oxo-4,5-dihydro-1H-[1,2,4]triazol-3-yl]-[2-fluoro-3-(2-hydroxyethoxy)-5-methoxyphenyl]methyl}amino)benzamidine] | 0.0113
4 | COc1cc(OCCO)cc(C(Nc2ccc(C(=N)N)cc2)c2nn(-c3ncccc3N)c(=O)[nH]2)c1 (stereo not shown) [Example 207, 4-({[1-(3-Aminopyridin-2-yl)-5-oxo-4,5-dihydro-1H-[1,2,4]triazol-3-yl]-[3-(2-hydroxyethoxy)-5-methoxyphenyl]methyl}amino)benzamidine acetate] | 0.0199
5 | COc1cc(C(Nc2ccc(C(=N)N)cc2)c2nn(-c3ncccc3N)c(=O)[nH]2)c(F)c2c1OCCC2 (stereo not shown) [Example 209, 4-{[[1-(3-Aminopyridin-2-yl)-5-oxo-4,5-dihydro-1H-[1,2,4]triazol-3-yl]-(5-fluoro-8-methoxychroman-6-yl)methyl]amino}benzamidine trifluoroacetate] | 0.004
6 | COc1cc(OC)c(F)c(C(Nc2ccc(C(=N)N)cc2)c2nn(-c3cccc(C(=O)O)n3)c(=O)[nH]2)c1 (stereo not shown) [Example 210, 6-{3-[(4-Carbamimidoylphenylamino)-(2-fluoro-3,5-dimethoxyphenyl)methyl]-5-oxo-4,5-dihydro-[1,2,4]triazol-1-yl}pyridine-2-carboxylic acid trifluoroacetate] | 0.0391
7 | COc1cc(O)c(F)c(C(Nc2ccc(C(=N)N)cc2)c2nn(-c3ncccn3)c(=O)[nH]2)c1 (stereo not shown) [Example 224, 4-{[(2-Fluoro-3-hydroxy-5-methoxyphenyl)-(5-oxo-1-pyrimidin-2-yl-4,5-dihydro-1H-[1,2,4]triazol-3-yl)methyl]amino}benzamidine acetate] | 0.0488

More lines, in order of falling IC50, values ahead:

Row | IC50 [µM] | Structure (SMILES)
8 | 0.0417 | COc1cc(OCCO)c(F)c(C(Nc2ccc(C(=N)N)cc2)c2nn(-c3ncsc3C(=O)O)c(=O)[nH]2)c1 (stereo not shown) [Example 182, 4-(3-{(4-carbamimidoylphenylamino)-[2-fluoro-3-(2-hydroxyethoxy)-5-methoxyphenyl]methyl}-5-oxo-4,5-dihydro[1,2,4]triazol-1-yl)thiazole-5-carboxylic acid trifluoroacetate]
9 | 0.0322 | COc1cc(C(Nc2ccc(C(=N)N)cc2)c2nn(-c3[nH]ncc3C(=O)O)c(=O)[nH]2)c(F)c2c1OCCC2 (stereo not shown) [Example 189, 5-{3-[(4-Carbamimidoylphenylamino)-(5-fluoro-8-methoxychroman-6-yl)methyl]-5-oxo-4,5-dihydro-[1,2,4]triazol-1-yl}-1H-pyrazole-4-carboxylic acid]
10 | 0.012 | COCCOc1cc(OC)cc(C(Nc2ccc(C(=N)N)cc2)c2nn(-c3ncccc3N)c(=O)[nH]2)c1F (stereo not shown) [Example 202, 4-({[1-(3-Aminopyridin-2-yl)-5-oxo-4,5-dihydro-1H-[1,2,4]triazol-3-yl]-[2-fluoro-5-methoxy-3-(2-methoxyethoxy)phenyl]methyl}amino)benzamidine acetate]
11 | 0.0093 | COc1cc(OCCO)c(F)c(C(Nc2ccc(C(=N)N)cc2)c2nn(-c3ncccn3)c(=O)[nH]2)c1 (stereo not shown) [Example 181, 4-({[2-fluoro-3-(2-hydroxyethoxy)-5-methoxyphenyl]-(5-oxo-1-pyrimidin-2-yl-4,5-dihydro-1H-[1,2,4]triazol-3-yl)methyl}amino)benzamidine acetate]
12 | 0.0078 | CCOC(=O)c1cn[nH]c1-n1nc(C(Nc2ccc(C(=N)N)cc2)c2cc(OC)c3c(c2F)OCCO3)[nH]c1=O (stereo not shown) [Example 197, 5-{3-[(4-Carbamimidoylphenylamino)-(5-fluoro-8-methoxy-2,3-dihydrobenzo[1,4]dioxin-6-yl)methyl]-5-oxo-4,5-dihydro-[1,2,4]triazol-1-yl}-1H-pyrazole-4-carboxylic acid ethyl ester trifluoroacetate]
13 | 0.0027 | CCc1cc(OCCCO)c(F)c(C(Nc2ccc(C(=N)N)cc2)c2nn(-c3ncccc3N)c(=O)[nH]2)c1 (stereo not shown) [Example 204, 4-({[1-(3-Aminopyridin-2-yl)-5-oxo-4,5-dihydro-1H-[1,2,4]triazol-3-yl]-[5-ethyl-2-fluoro-3-(3-hydroxypropoxy)phenyl]methyl}amino)benzamidine acetate]
